Test results: article PMC4657098, “A Review of the Updated Pharmacophore for the Alpha 5 GABA(A) Benzodiazepine Receptor Model” (International Journal of Medicinal Chemistry, 2015)

Key:
σ2 = assay: PDSP receptor binding, σ2; conditions: PDSP primary screen at 10 µM
5ht3 = biological target: T1, 5ht3 (Homo sapiens, UniProt P46098); assay: PDSP receptor binding, 5ht3; conditions: PDSP primary screen at 10 µM
T1 construct: purchased NIMH PDSP (Psychoactive Drug Screening Program, Roth lab, Case Western Reserve)

DAT = biological target: T2, DAT (Homo sapiens, UniProt Q01959); assay: PDSP receptor binding, DAT; conditions: PDSP primary screen at 10 µM
T2 construct: purchased NIMH PDSP (Psychoactive Drug Screening Program, Roth lab, Case Western Reserve)

α5β3γ2 GABAA receptor [1] = biological target: T3, α5β3γ2 GABAA receptor (Homo sapiens, UniProt P18507+P31644); assay: Oocyte electrophysiology, α5β3γ2; assay type: cell-based
T3 construct: expressed in transfected cells; host or cells: Xenopus oocytes

H2 = biological target: T4, H2 (Homo sapiens, UniProt P25021); assay: PDSP receptor binding, H2; conditions: PDSP primary screen at 10 µM
T4 construct: purchased NIMH PDSP (Psychoactive Drug Screening Program, Roth lab, Case Western Reserve)

[2] = PDSP receptor binding, β1B; conditions: PDSP primary screen at 10 µM
5ht1a = biological target: T5, 5ht1a (Homo sapiens, UniProt P08908); assay: PDSP receptor binding, 5ht1a; conditions: PDSP primary screen at 10 µM
T5 construct: purchased NIMH PDSP (Psychoactive Drug Screening Program, Roth lab, Case Western Reserve)

D3 = biological target: T6, D3 (Homo sapiens, UniProt P35462); assay: PDSP receptor binding, D3; conditions: PDSP primary screen at 10 µM
T6 construct: purchased NIMH PDSP (Psychoactive Drug Screening Program, Roth lab, Case Western Reserve)

α1A = biological target: T7, α1A (Homo sapiens, UniProt P35348); assay: PDSP receptor binding, α1A; conditions: PDSP primary screen at 10 µM
T7 construct: purchased NIMH PDSP (Psychoactive Drug Screening Program, Roth lab, Case Western Reserve)

α1β3γ2 GABAA receptor = conditions: cited from earlier work
α5β3γ2 GABAA receptor [3] = biological target: T3, α5β3γ2 GABAA receptor; conditions: cited from earlier work
MDR = assay: PDSP receptor binding, MDR; conditions: PDSP primary screen at 10 µM
D4 = biological target: T8, D4 (Homo sapiens, UniProt P21917); assay: PDSP receptor binding, D4; conditions: PDSP primary screen at 10 µM
T8 construct: purchased NIMH PDSP (Psychoactive Drug Screening Program, Roth lab, Case Western Reserve)

CB1 = biological target: T9, CB1 (Homo sapiens, UniProt P21554); assay: PDSP receptor binding, CB1; conditions: PDSP primary screen at 10 µM
T9 construct: purchased NIMH PDSP (Psychoactive Drug Screening Program, Roth lab, Case Western Reserve)

DOR = biological target: T10, DOR (Homo sapiens, UniProt P41143); assay: PDSP receptor binding, DOR; conditions: PDSP primary screen at 10 µM
T10 construct: purchased NIMH PDSP (Psychoactive Drug Screening Program, Roth lab, Case Western Reserve)

α6β3γ2 BzR/GABA(A) = conditions: Figure 1; LTK cells; read-out: Binding affinity α6; cited from earlier work
D2 = biological target: T11, D2 (Homo sapiens, UniProt P14416); assay: PDSP receptor binding, D2; conditions: PDSP primary screen at 10 µM
T11 construct: purchased NIMH PDSP (Psychoactive Drug Screening Program, Roth lab, Case Western Reserve)

D5 = biological target: T12, D5 (Homo sapiens, UniProt P21918); assay: PDSP receptor binding, D5; conditions: PDSP primary screen at 10 µM
T12 construct: purchased NIMH PDSP (Psychoactive Drug Screening Program, Roth lab, Case Western Reserve)

5ht5a = biological target: T13, 5ht5a (Homo sapiens, UniProt P47898); assay: PDSP receptor binding, 5ht5a; conditions: PDSP primary screen at 10 µM
T13 construct: purchased NIMH PDSP (Psychoactive Drug Screening Program, Roth lab, Case Western Reserve)

α2β3γ2 GABAA receptor = conditions: cited from earlier work
5ht1d = biological target: T14, 5ht1d (Homo sapiens, UniProt P28221); assay: PDSP receptor binding, 5ht1d; conditions: PDSP primary screen at 10 µM
T14 construct: purchased NIMH PDSP (Psychoactive Drug Screening Program, Roth lab, Case Western Reserve)

D1 = biological target: T15, D1 (Homo sapiens, UniProt P21728); assay: PDSP receptor binding, D1; conditions: PDSP primary screen at 10 µM
T15 construct: purchased NIMH PDSP (Psychoactive Drug Screening Program, Roth lab, Case Western Reserve)

5ht2c = biological target: T16, 5ht2c (Homo sapiens, UniProt P28335); assay: PDSP receptor binding, 5ht2c; conditions: PDSP primary screen at 10 µM
T16 construct: purchased NIMH PDSP (Psychoactive Drug Screening Program, Roth lab, Case Western Reserve)

α1β3γ2 GABAA/BzR = α1β3γ2 GABAA/BzR (Homo sapiens, UniProt P14867+P18507); assay: Competition binding to HEK cell membranes, α1β3γ2; parameters: expressed in transfected cells; conditions: Ki α1
CB2 = biological target: T17, CB2 (Homo sapiens, UniProt P34972); assay: PDSP receptor binding, CB2; conditions: PDSP primary screen at 10 µM
T17 construct: purchased NIMH PDSP (Psychoactive Drug Screening Program, Roth lab, Case Western Reserve)

5ht2a = biological target: T18, 5ht2a (Homo sapiens, UniProt P28223); assay: PDSP receptor binding, 5ht2a; conditions: PDSP primary screen at 10 µM
T18 construct: purchased NIMH PDSP (Psychoactive Drug Screening Program, Roth lab, Case Western Reserve)

5ht1e = biological target: T19, 5ht1e (Homo sapiens, UniProt P28566); assay: PDSP receptor binding, 5ht1e; conditions: PDSP primary screen at 10 µM
T19 construct: purchased NIMH PDSP (Psychoactive Drug Screening Program, Roth lab, Case Western Reserve)

α3β3γ2 BzR/GABA(A) = conditions: Figure 1; LTK cells; read-out: Binding affinity α3; cited from earlier work
SERT = biological target: T20, SERT (Homo sapiens, UniProt P31645); assay: PDSP receptor binding, SERT; conditions: PDSP primary screen at 10 µM
T20 construct: purchased NIMH PDSP (Psychoactive Drug Screening Program, Roth lab, Case Western Reserve)

M5 = biological target: T21, M5 (Homo sapiens, UniProt P08912); assay: PDSP receptor binding, M5; conditions: PDSP primary screen at 10 µM
T21 construct: purchased NIMH PDSP (Psychoactive Drug Screening Program, Roth lab, Case Western Reserve)

α5β3γ2 GABAA/BzR = α5β3γ2 GABAA/BzR (Homo sapiens, UniProt P18507+P31644); assay: Competition binding to HEK cell membranes, α5β3γ2; parameters: expressed in transfected cells; conditions: Ki α5
MOR = biological target: T22, MOR (Homo sapiens, UniProt P35372); assay: PDSP receptor binding, MOR; conditions: PDSP primary screen at 10 µM
T22 construct: purchased NIMH PDSP (Psychoactive Drug Screening Program, Roth lab, Case Western Reserve)

α3β3γ2 GABAA/BzR = α3β3γ2 GABAA/BzR (Homo sapiens, UniProt P18507+P34903); assay: Competition binding to HEK cell membranes, α3β3γ2; parameters: expressed in transfected cells; conditions: Ki α3
[4] = system: GABA(A) receptor subtypes; conditions: up to a concentration of 1 μM; any one of the subtypes tested; cited from earlier work
α5β3γ2 BzR/GABA(A) = conditions: text b7; read-out: Ki at the α5β3γ2 subtype; cited from earlier work
M1 = biological target: T23, M1 (Homo sapiens, UniProt P11229); assay: PDSP receptor binding, M1; conditions: PDSP primary screen at 10 µM
T23 construct: purchased NIMH PDSP (Psychoactive Drug Screening Program, Roth lab, Case Western Reserve)

H3 = biological target: T24, H3 (Homo sapiens, UniProt Q9Y5N1); assay: PDSP receptor binding, H3; conditions: PDSP primary screen at 10 µM
T24 construct: purchased NIMH PDSP (Psychoactive Drug Screening Program, Roth lab, Case Western Reserve)

H1 = biological target: T25, H1 (Homo sapiens, UniProt P35367); assay: PDSP receptor binding, H1; conditions: PDSP primary screen at 10 µM
T25 construct: purchased NIMH PDSP (Psychoactive Drug Screening Program, Roth lab, Case Western Reserve)

[5] = system: other receptors (PDSP panel); assay: Full PDSP panel receptor binding; conditions: NIMH PDSP, Case Western Reserve
α3β3γ2 GABAA receptor = conditions: cited from earlier work
M2 = biological target: T26, M2 (Homo sapiens, UniProt P08172); assay: PDSP receptor binding, M2; conditions: PDSP primary screen at 10 µM
T26 construct: purchased NIMH PDSP (Psychoactive Drug Screening Program, Roth lab, Case Western Reserve)

Imidaz oline = assay: PDSP receptor binding, Imidazoline; conditions: PDSP primary screen at 10 µM

In the case of `C#Cc1ccc2c(c1)C(=O)N(C)Cc1c(C(=O)OCCCOC(=O)c3ncn4c3CN(C)C(=O)c3cc(C#C)ccc3-4)ncn1-2` [XLi-093 (4), 1,3-Bis(8-acetyleno-5,6-dihydro-5-methyl-6-oxo-4H-imidazo[1,5a][1,4]benzodiazepine-3-carboxy) propyl diester], the σ2 binding (σ2) is reported as “∗ (“∗” indicates “primary missed” (<50% inhibition at 10 µM))”, the 5ht3 binding (5ht3) is reported as “∗ (“∗” indicates “primary missed” (<50% inhibition at 10 µM))” and the DAT binding (DAT) is reported as “∗ (“∗” indicates “primary missed” (<50% inhibition at 10 µM))”. For the same compound, the “efficacy type at the α5 subtype” value (α5β3γ2 GABAA receptor [1]) was “antagonist”, the H2 binding (H2) was “∗ (“∗” indicates “primary missed” (<50% inhibition at 10 µM))” and the β1B binding [2] was “∗ (“∗” indicates “primary missed” (<50% inhibition at 10 µM))”. For the same compound, the 5ht1a binding (5ht1a) was “∗ (“∗” indicates “primary missed” (<50% inhibition at 10 µM))”, the D3 binding (D3) was “∗ (“∗” indicates “primary missed” (<50% inhibition at 10 µM))” and the α1A binding (α1A) was “∗ (“∗” indicates “primary missed” (<50% inhibition at 10 µM))”. The “modulation of GABA induced chloride flux, α1β3γ2” value (α1β3γ2 GABAA receptor; at 1 μM) was “did not modulate”, the “influence on benzodiazepine (Valium) stimulation of GABA-induced current, α1β3γ2” value (α1β3γ2 GABAA receptor) was “barely influenced” and the “modulation of GABA induced chloride flux, α5β3γ2” value (α5β3γ2 GABAA receptor [3]; at 1 μM) was “very slightly inhibited”. The “influence on benzodiazepine (Valium) stimulation of GABA-induced current, α5β3γ2” value (α5β3γ2 GABAA receptor [3]) was “shifted the diazepam dose response curve to the right”, the “inhibition of diazepam-stimulated currents in α5β3γ2 receptors” value (α5β3γ2 GABAA receptor [3]) was “dose dependently and completely inhibit” and the MDR binding (MDR) was “∗ (“∗” indicates “primary missed” (<50% inhibition at 10 µM))”. The D4 binding (D4) was “∗ (“∗” indicates “primary missed” (<50% inhibition at 10 µM))”, the CB1 binding (CB1) was “∗ (“∗” indicates “primary missed” (<50% inhibition at 10 µM))” and the DOR binding (DOR) was “∗ (“∗” indicates “primary missed” (<50% inhibition at 10 µM))”. The Ki (α6β3γ2 BzR/GABA(A)) was > 2000 nM, the D2 binding (D2) was “∗ (“∗” indicates “primary missed” (<50% inhibition at 10 µM))” and the D5 binding (D5) was “∗ (“∗” indicates “primary missed” (<50% inhibition at 10 µM))”. The 5ht5a binding (5ht5a) was “∗ (“∗” indicates “primary missed” (<50% inhibition at 10 µM))”, the “modulation of GABA induced chloride flux, α2β3γ2” value (α2β3γ2 GABAA receptor; at 1 μM) was “did not modulate” and the “influence on benzodiazepine (Valium) stimulation of GABA-induced current, α2β3γ2” value (α2β3γ2 GABAA receptor) was “barely influenced”. The 5ht1d binding (5ht1d) was “∗ (“∗” indicates “primary missed” (<50% inhibition at 10 µM))”, the D1 binding (D1) was “∗ (“∗” indicates “primary missed” (<50% inhibition at 10 µM))” and the 5ht2c binding (5ht2c) was “∗ (“∗” indicates “primary missed” (<50% inhibition at 10 µM))”. For the same compound, the Ki (α1β3γ2 GABAA/BzR) was > 1000 nM, the CB2 binding (CB2) was “∗ (“∗” indicates “primary missed” (<50% inhibition at 10 µM))” and the 5ht2a binding (5ht2a) was “∗ (“∗” indicates “primary missed” (<50% inhibition at 10 µM))”. For the same compound, the 5ht1e binding (5ht1e) was “∗ (“∗” indicates “primary missed” (<50% inhibition at 10 µM))”, the Ki (α3β3γ2 BzR/GABA(A)) was 858 nM and the SERT binding (SERT) was “∗ (“∗” indicates “primary missed” (<50% inhibition at 10 µM))”. The M5 binding (M5) was “∗ (“∗” indicates “primary missed” (<50% inhibition at 10 µM))”, the Ki (α5β3γ2 GABAA/BzR) was 15 nM and the MOR binding (MOR) was “∗ (“∗” indicates “primary missed” (<50% inhibition at 10 µM))”. The Ki (α3β3γ2 GABAA/BzR) was 858 nM, the “triggering of chloride flux” value [4] was “did not trigger chloride flux” and the Ki (α5β3γ2 BzR/GABA(A)) was 15 nM. The M1 binding (M1) was “∗ (“∗” indicates “primary missed” (<50% inhibition at 10 µM))”, the H3 binding (H3) was “∗ (“∗” indicates “primary missed” (<50% inhibition at 10 µM))” and the H1 binding (H1) was “∗ (“∗” indicates “primary missed” (<50% inhibition at 10 µM))”. For the same compound, the “full panel receptor binding” value [5] was “do not bind to other receptors at levels of concern”, the “modulation of GABA induced chloride flux, α3β3γ2” value (α3β3γ2 GABAA receptor; at 1 μM) was “did not modulate” and the “influence on benzodiazepine (Valium) stimulation of GABA-induced current, α3β3γ2” value (α3β3γ2 GABAA receptor) was “barely influenced”. For the same compound, the M2 binding (M2) was “∗ (“∗” indicates “primary missed” (<50% inhibition at 10 µM))” and the Imidaz oline binding (Imidaz oline) was “∗ (“∗” indicates “primary missed” (<50% inhibition at 10 µM))”.
